Laboratory results taken from US7211402B2, “Transcription factor coactivator protein, p/CIP” (The Regents of the University of California, priority 1997, dated 2007).
“Also recorded” adds a separate entry of the source.

How the values were obtained:
[1] = system: STAT-dependent (interferon γ-dependent) transcription; test: Single cell microinjection assay, interferon γ-dependent GAS/LacZ reporter; type: cell-based, rat; settings: for effect on interferon γ-dependent (STAT) gene activation: microinjection into Rat-1 cells, GAS/LacZ reporter
Protocol: (§1) Insulin-responsive Rat-1 fibroblasts were seeded on acid washed glass coverslips at subconfluent density and grown in MNE/F12 medium supplemented with 10% fetal bovine serum, gentamicin and methotrexate. Prior to the injection, the cells were rendered quiescent by incubation in serum-free medium for 24–36 hr. Plasmids were injected into the nuclei of cells at a final concentration of […]. Peptides were injected at a concentration of 200 mM. Either preimmune IgG of the appropriate species or antibodies directed against p/CIP, NCoA-1 or NCoA-2 were co-injected and allowed the unambiguous identification of the injected cells.
(§2) Microinjections were carried out using an Eppendorf semiautomated microinjection system mounted on an inverted Zeiss microscope. Approximately 1 hr after injection, the cells were stimulated, where indicated, with the appropriate ligand. In the case of rescue experiments, the cells were stimulated with ligand 6 hr after injection, to allow protein expression. After overnight incubation, the cells were fixed, then stained to detect injected IgG and β-galactosidase expression (Rose et al., J. Cell. Biol. 119:1405–1411 (1992), which is incorporated herein by reference; Kamei et al., supra, 1996). Injected cells were identified by staining with tetramethylrhodamine-conjugated donkey anti-rabbit IgG.

[2] = system: RAR-dependent transcription; test: Single cell microinjection assay, retinoic acid-dependent RARE/LacZ reporter; type: cell-based, rat; settings: for effect on retinoic acid-dependent gene activation by RAR: microinjection into Rat-1 cells
Protocol: as §1, §2

liganded RAR and NCoA-1 = molecular target: T1, liganded RAR and NCoA-1 (Homo sapiens, UniProt P10276); test: In vitro competition assay, GST-RAR interaction with in vitro translated NCoA-1; type: binding; settings: excess peptide; 35S-labeled NCoA interaction domain fragment (aa 635–760); TTNPB 1 μM
T1 construct: GST-RAR (143–462), GST-ER(251–595) and GST-CBP(2058–2170) were generated as described; made in house; NCoA-1 was made by in vitro translation
T1 sequence (P10276 143-462): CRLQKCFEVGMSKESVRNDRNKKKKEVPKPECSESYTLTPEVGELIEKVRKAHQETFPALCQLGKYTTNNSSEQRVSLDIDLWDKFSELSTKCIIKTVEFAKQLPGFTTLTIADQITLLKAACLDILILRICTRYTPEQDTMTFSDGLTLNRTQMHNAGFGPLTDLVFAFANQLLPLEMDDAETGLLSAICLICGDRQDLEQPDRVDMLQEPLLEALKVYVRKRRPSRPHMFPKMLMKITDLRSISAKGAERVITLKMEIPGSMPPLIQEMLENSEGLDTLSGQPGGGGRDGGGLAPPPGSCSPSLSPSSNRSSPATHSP
Protocol: GST-RAR (143–462), GST-ER(251–595) and GST-CBP(2058–2170) were generated as described (Kamei et al., supra, 1996). 25 ul of GST SEPHAROSE beads containing 10 ug of the GST recombinant proteins were incubated in the presence or absence of the appropriate ligand for 30 min at room temperature, followed by the addition of 1 mg of cell extract and incubated for an additional 1 hr at 4° C. The complexes were then centrifuged, washed three times in NET-N buffer, separated by SDS-PAGE and western blotted with the appropriate antibodies (1 ug/ml). For co-immunoprecipitation assays, 1 mg of cell extract was incubated in the presence of 2 ug of p/CIP or NCoA antibody for 2 hr at 4° C. The immune complexes were precipitated with protein A SEPHAROSE (50% w/v). Protein complexes were separated by SDS-PAGE (Laemmle, Nature 227:680–685 (1970), which is incorporated herein by reference) and western blotted using 1 ug/ml of an anti-CBP/P300 monoclonal antibody (UBI). For in vitro competition assays, the indicated peptides were incubated with in vitro translated NCoA-1 prior to GST interaction with RAR.

[3] = system: SP-1 or CMV dependent transcription; test: Single cell microinjection assay, control promoters lacking nuclear receptor response elements; type: cell-based; settings: microinjection into Rat-1 cells
Protocol: as §1, §2

[4] = system: TPA-dependent transcriptional activation; test: Single cell microinjection assay, TPA-dependent reporter; type: cell-based; settings: microinjection into Rat-1 cells
Protocol: as §1, §2

[5] = molecular target: T2, estrogen receptor ligand binding domain (yeast two-hybrid bait, liganded) (UniProt P03372 251-595); test: yeast two-hybrid
T2 construct: Tested with estradiol (10^-6 M); also called liganded estrogen receptor (LBD); ER
T2 sequence (looked up): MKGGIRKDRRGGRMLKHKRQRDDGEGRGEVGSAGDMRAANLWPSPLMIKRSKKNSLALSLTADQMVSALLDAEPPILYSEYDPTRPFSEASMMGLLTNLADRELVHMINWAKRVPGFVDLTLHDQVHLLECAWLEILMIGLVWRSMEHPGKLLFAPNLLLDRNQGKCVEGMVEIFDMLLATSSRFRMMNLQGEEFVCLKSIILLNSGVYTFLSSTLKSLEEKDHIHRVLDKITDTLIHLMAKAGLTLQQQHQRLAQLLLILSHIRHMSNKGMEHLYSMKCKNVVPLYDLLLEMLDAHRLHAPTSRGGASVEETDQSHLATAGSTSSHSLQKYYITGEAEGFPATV

[6] = simultaneous retinoic acid and interferon γ

“CBP N′-P1: synthetic peptide of the N-terminal 22 amino acids of CBP; CBP N′-P1 (aa 1–19) (MAENLLDGPPNPKRAKLSS)” was tested, and the “effect on interferon γ-dependent (STAT) gene activation” value (“effect on interferon γ-dependent” below) [1] was “markedly inhibited”, the “effect on retinoic acid dependent inhibition of the GAS/LacZ reporter” value [1, 6] was “had no effect” and the “effect on retinoic acid-dependent gene activation by RAR” value (from here on “effect … by RAR”) [2] was “without effect”. For the same molecule, the “effect on interferon γ inhibition of RAR-dependent transcription” value [2, 6] was “relieved inhibition; also recorded: fully abolished”.

In the case of “LCD 1: peptide corresponding to LCD 1 of NCoA-1; NCoA-1 LCD1 (aa 631–647) (SQTSHKLVQLLTTTAEQ; UniProt P70365 631-647, looked up, fragment)”, the “inhibition of interaction between liganded RAR and NCoA-1 in vitro” value (liganded RAR and NCoA-1) is reported as “less effective”.

For “LCD4: 19-mer peptide corresponding to NCoA-1 LCD4 (aa 907–926)”, the “effect on interferon γ-dependent” value [1] was “does not impair”, the “effect … by RAR” value [2] was “can block” and the “effect … by RAR” value ([2]; listed as NCoA-1 LCD4) was “inhibits”.

B1: p/CIP (aa 947–1084): 137 amino acid region of p/CIP (aa 947–1084) containing the core CBP interaction domain (protein, UniProt O09000 947-1084, looked up, fragment)
chain: VPTLPLRSNRLPGARPSLQQQQQQQQQQQQQQQQQQQQQQQMLQMRTGEIPMGMGVNPYSPAVQSNQPGSWPEGMLSMEQGPHGSQNRPLLRNSLDDLLGPPSNAEGQSDERALLDQLHTFLSNTDATGLEEIDRALG
B1 was tested, and the “effect on SP-1 / CMV control promoters (non-CBP-dependent)” value [3] was “did not block”, the “effect on interferon γ-dependent” value [1] was “blocked” and the “effect … by RAR” value [2] was “completely inhibited”. For the same molecule, the “effect … by RAR” value ([2]; listed as amino acids 947 to 1084 of p/CIP) was “inhibits” and the “effect on TPA-dependent transcriptional activation” value [4] was “blocked”.

B2: NCoA-1 (aa 635-760) with LCD2 mutation (amino acids 695 to 698, HRLL->AAAA), yeast two-hybrid prey (other, UniProt P70365 635-760, looked up)
chain: HKLVQLLTTTAEQQLRHADIDTSCKDVLSCTGTSSSASSNPSGGTCPSSHSSLTERHKILAAAAQEGSPSDITTLSVEPEKKDSVPASTAVSVSGQSQGSASIKLELDAAKKKESKDHQLLRYLLD
notes: also called Mutations of the LCD2 motif (RLHRLL->RLAAAA); not shown: B42 fusion partner of prey vector pJG 4-5
B2: no binding [5].
